This is an account of results in US11866752B2, “Cysteine polysulfidation and mitochondrial bioenergetics regulated by cysteinyl-tRNA synthetase” (Bio-Xcelerator, Inc., priority 2018, dated 2024).

For one series, the target named is T1, EcCARS (Escherichia coli, UniProt P21888).
T1 construct: His tag (inferred from nickel-NTA purification); made in house
It counts as biochemical. As to conditions: for Persulfide generation by EcCARS with cysteine enantiomer as substrate: substrate enantioselectivity. The source says: The data are means ±s.d. […] Data represent means ±s.d.

A further series deals with T2, ADH5 (Homo sapiens, UniProt P11766).
T2 construct: made in house; host or cells: Escherichia coli
T2 sequence (P11766 whole entry, species assumed): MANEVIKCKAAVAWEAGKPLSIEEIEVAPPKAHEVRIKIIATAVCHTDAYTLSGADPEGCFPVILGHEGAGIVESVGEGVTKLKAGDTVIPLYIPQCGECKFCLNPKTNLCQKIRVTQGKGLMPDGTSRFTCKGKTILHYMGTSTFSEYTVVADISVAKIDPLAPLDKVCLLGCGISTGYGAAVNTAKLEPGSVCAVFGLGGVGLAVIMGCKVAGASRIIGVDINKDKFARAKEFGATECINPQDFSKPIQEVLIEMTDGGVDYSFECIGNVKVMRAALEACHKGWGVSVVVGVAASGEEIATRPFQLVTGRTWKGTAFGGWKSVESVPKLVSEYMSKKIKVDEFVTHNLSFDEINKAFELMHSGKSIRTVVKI
Nature of the series: HPE-IAM labeling of ADH5 cysteine polysulfides, LC-ESI-MS/MS. Particulars: treatment of ADH5. An excerpt:
Redox property of cysteine and protein polysulfides. CysSSHhas unique redox-active properties that distinguishes it from the cysteine (CysSH) thiol. […] Moreover, dialkylpolysulfides can also be nucleophilic and electrophile-mediated cleavage of S—S bonds is established28. The unique properties and reactivity of polysulfides allowed us to develop several analytical techniques aimed at determining endogenous production of LMW and protein-bound polysulfides (Supplementary FIG. 3). We first developed a convenient method for selective detection of polysulfidated proteins: the biotin-polyethylene glycol (PEG)-conjugated maleimide (biotin-PEG-MAL) labeling gel shift assay (PMSA; Supplementary FIG. 3a)15. […] We then used liquid chromatography-electrospray ionizationtandem mass spectrometry (LC-ESI-MS/MS) with 0-(4-hydroxyphenyl) ethyl iodoacetamide (HPE-IAM) as a trapping agent to identify and precisely quantify various hydropolysulfides, and also to verify the site specificity of polysulfidation as well as the number of sulfur atoms involved in proteins (Supplementary FIG. 5, and Supplementary Table 2). […]

Series [1] deals with mitochondrial ETC in HEK293T cells. Nature of the series: Effect of suppression of ETC on metabolic profiles of CysSSH. The series is classed as cell-based, human. Particulars: HPE-IAM labeling LC-MS/MS. How it is done:
Effect of suppression of ETC on metabolic profiles of CysSSH. The mito-chondrial ETC in HEK293T cells was inhibited either by a complex III inhibitor, antimycin A, or by elimination of mitochondrial DNA (mtDNA) induced by ethidium bromide. For the direct but partial ETC (complex III) inhibition, WT and CARS2 KO cells were treated with various concentrations of antimycin A for 1 h, followed by methanol extraction for measurement of CysSSH and its related sulfide derivatives by HPE-IAM labeling LC-ESI-MS/MS analysis as described earlier. […] The quantity of each sulfide produced from CARS2 in the cells was determined by subtracting the amount of each sulfide in CARS2 KO HEK293T cells from that in the WT cells, after quantification of each metabolite via HPE-IAM labeling LC-MS/MS analysis. Changes in the amounts of CysSSH (ACysSSH) and HS— (AHS-) induced by complex III inhibition by antimycin A or by mtDNA elimination in WT and CARS2 KO HEK293T cells were then calculated.

The next series concerns the target T3, human CARS2 (Homo sapiens, UniProt Q9HA77).
T3 sequence (Q9HA77 1-564): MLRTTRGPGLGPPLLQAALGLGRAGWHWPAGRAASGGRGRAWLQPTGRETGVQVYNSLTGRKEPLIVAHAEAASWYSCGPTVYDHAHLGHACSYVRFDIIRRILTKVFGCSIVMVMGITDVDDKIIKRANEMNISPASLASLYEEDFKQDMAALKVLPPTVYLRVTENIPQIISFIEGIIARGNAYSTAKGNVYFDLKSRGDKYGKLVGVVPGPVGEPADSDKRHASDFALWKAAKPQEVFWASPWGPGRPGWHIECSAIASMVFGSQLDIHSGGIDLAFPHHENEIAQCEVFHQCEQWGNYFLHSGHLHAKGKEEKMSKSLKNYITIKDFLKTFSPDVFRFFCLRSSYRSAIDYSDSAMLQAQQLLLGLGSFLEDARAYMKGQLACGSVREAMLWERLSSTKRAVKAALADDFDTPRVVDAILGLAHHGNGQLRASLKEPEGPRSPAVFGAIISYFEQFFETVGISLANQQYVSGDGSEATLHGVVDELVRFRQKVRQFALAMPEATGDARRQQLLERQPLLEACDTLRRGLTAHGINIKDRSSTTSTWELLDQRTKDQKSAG
Nature of the series: CysSSH and CysSSSH biosynthesis by recombinant human CARS2.

For a further series, the target named is T4, mouse CARS1 (Mus musculus, UniProt Q9ER72).
T4 sequence (Q9ER72 1-748 isoform Q9ER72-2): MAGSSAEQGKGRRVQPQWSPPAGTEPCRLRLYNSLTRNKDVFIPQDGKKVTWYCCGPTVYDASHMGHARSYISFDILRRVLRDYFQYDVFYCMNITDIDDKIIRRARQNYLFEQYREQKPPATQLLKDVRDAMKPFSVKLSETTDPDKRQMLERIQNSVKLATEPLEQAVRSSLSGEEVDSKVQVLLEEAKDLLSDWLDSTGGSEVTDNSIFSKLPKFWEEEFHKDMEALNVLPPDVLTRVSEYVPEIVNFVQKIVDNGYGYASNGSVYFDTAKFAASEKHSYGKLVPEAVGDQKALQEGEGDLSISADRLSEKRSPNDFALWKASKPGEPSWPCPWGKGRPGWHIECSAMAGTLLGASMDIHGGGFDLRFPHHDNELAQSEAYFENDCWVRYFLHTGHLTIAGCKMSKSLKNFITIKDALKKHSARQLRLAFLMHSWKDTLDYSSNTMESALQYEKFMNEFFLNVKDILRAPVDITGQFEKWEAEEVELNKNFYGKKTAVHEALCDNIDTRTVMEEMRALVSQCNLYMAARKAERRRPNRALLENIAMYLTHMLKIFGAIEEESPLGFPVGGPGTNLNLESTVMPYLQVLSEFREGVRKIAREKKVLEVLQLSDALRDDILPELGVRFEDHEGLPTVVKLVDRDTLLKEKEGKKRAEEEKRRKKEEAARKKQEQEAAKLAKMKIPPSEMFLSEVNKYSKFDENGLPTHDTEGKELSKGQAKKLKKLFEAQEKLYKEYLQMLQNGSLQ
Nature of the series: CysSSH and CysSSSH biosynthesis by recombinant mouse CARS1.

Another series concerns CSE. Briefly: Kinetic parameters of recombinant CSE with L-cystine as substrate. The series is classed as biochemical, rat and human.

T1 sequence (P21888 whole entry): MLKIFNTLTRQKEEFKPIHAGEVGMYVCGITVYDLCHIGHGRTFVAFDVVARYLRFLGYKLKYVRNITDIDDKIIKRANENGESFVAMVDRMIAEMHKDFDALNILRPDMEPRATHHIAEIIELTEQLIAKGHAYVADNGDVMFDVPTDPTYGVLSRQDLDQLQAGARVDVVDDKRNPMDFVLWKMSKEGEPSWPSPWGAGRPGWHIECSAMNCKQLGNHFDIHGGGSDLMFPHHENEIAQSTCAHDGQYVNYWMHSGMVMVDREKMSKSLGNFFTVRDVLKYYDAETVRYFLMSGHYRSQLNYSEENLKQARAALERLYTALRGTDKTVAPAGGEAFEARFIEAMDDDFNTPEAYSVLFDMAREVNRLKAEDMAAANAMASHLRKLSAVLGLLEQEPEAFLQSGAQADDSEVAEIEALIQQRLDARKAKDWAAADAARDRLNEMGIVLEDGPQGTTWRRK

With `N[C@H](CS)C(=O)O` [D-cysteine], the “Persulfide generation by EcCARS with cysteine enantiomer as substrate” value on EcCARS is recorded as “but not D-cysteine demonstrated activity”.

Consider `CCN1C(=O)C=CC1=O` [N-ethylmaleimide], for which, at ADH5, the “HPE-IAM labeling of CysSH and CysSSH/SSSH of ADH5” value is “completely abrogated”.

Consider antimycin A, for which, in series [1], the “Change in CysSSH” value is “significant increase” and the “Change in HS- production” value is listed as “reduction”.

With `N[C@@H](CS)C(=O)O` [L-cysteine], the “Persulfide generation by EcCARS with cysteine enantiomer as substrate” value at EcCARS is listed as “demonstrated activity”.

Regarding `Cc1ncc(COP(=O)(O)O)c(C=O)c1O` [pyridoxal phosphate], the “Dependence of persulfide synthase activity of EcCARS on added factor” value on EcCARS is given as “depended partly”. Moreover, the “Dependence of CysS-(S)n-H producing activity on PLP” value on human CARS2 (human CARS2) and on mouse CARS1 (mouse CARS1) was “depended on the presence of PLP” each time. Further, the “Cysteine persulfide production in reaction mixture of cysteine and PLP alone” value at human CARS2 (no enzyme, no >100 μM PLP) was “No appreciable cysteine persulfide production was detected”.

For `Nc1ncnc2c1ncn2[C@@H]1O[C@H](COP(=O)(O)OP(=O)(O)OP(=O)(O)O)[C@@H](O)[C@H]1O` [ATP], on EcCARS, the “Dependence of persulfide synthase activity of EcCARS on added factor” value is on record as “but not on ATP”.

B1: mouse CARS1: recombinant cytosolic cysteinyl-tRNA synthetase (protein, UniProt Q9ER72 2-831, looked up)
Cysteine--tRNA ligase, …: AGSSAEQAADYRSILSISDEAARVQALDQHLSTRSYIQGYSLSQADVDVFRQLSAPPADSRLFHVARWFRHIEALLGGPQGRDEPCRLQASKGRRVQPQWSPPAGTEPCRLRLYNSLTRNKDVFIPQDGKKVTWYCCGPTVYDASHMGHARSYISFDILRRVLRDYFQYDVFYCMNITDIDDKIIRRARQNYLFEQYREQKPPATQLLKDVRDAMKPFSVKLSETTDPDKRQMLERIQNSVKLATEPLEQAVRSSLSGEEVDSKVQVLLEEAKDLLSDWLDSTGGSEVTDNSIFSKLPKFWEEEFHKDMEALNVLPPDVLTRVSEYVPEIVNFVQKIVDNGYGYASNGSVYFDTAKFAASEKHSYGKLVPEAVGDQKALQEGEGDLSISADRLSEKRSPNDFALWKASKPGEPSWPCPWGKGRPGWHIECSAMAGTLLGASMDIHGGGFDLRFPHHDNELAQSEAYFENDCWVRYFLHTGHLTIAGCKMSKSLKNFITIKDALKKHSARQLRLAFLMHSWKDTLDYSSNTMESALQYEKFMNEFFLNVKDILRAPVDITGQFEKWEAEEVELNKNFYGKKTAVHEALCDNIDTRTVMEEMRALVSQCNLYMAARKAERRRPNRALLENIAMYLTHMLKIFGAIEEESPLGFPVGGPGTNLNLESTVMPYLQVLSEFREGVRKIAREKKVLEVLQLSDALRDDILPELGVRFEDHEGLPTVVKLVDRDTLLKEKEGKKRAEEEKRRKKEEAARKKQEQEAAKLAKMKIPPSEMFLSEVNKYSKFDENGLPTHDTEGKELSKGQAKKLKKLFEAQEKLYKEYLQMLQNGSLQ
Regarding B1, the “CysS-(S)n-H producing activity” value with mouse CARS1 (recombinant mouse CARS1) is on record as “strong”.

B2: CSE: cystathionine γ-lyase (cystathionase), recombinant rat and human (protein, UniProt P32929 1-405, looked up)
Cystathionine gamma-lyase: MQEKDASSQGFLPHFQHFATQAIHVGQDPEQWTSRAVVPPISLSTTFKQGAPGQHSGFEYSRSGNPTRNCLEKAVAALDGAKYCLAFASGLAATVTITHLLKAGDQIICMDDVYGGTNRYFRQVASEFGLKISFVDCSKIKLLEAAITPETKLVWIETPTNPTQKVIDIEGCAHIVHKHGDIILVVDNTFMSPYFQRPLALGADISMYSATKYMNGHSDVVMGLVSVNCESLHNRLRFLQNSLGAVPSPIDCYLCNRGLKTLHVRMEKHFKNGMAVAQFLESNPWVEKVIYPGLPSHPQHELVKRQCTGCTGMVTFYIKGTLQHAEIFLKNLKLFTLAESLGGFESLAELPAIMTHASVLKNDRDVLGISDTLIRLSVGLEDEEDLLEDLDQALKAAHPPSGSHS
modifications: also rat
notes: cystathionine γ-lyase (cystathionase), recombinant rat and human
As to B2, the Km in the series on CSE was over 200 µM.
